Reference: patent publication US20240270762A1, “PENICILLIN-BINDING PROTEIN INHIBITORS” (priority 2021, published 2024)
Values after ≈ are worked out from the molar mass of the structure shown.

Columns and labels:
A. baumannii 1258916 = assay: microbe, parasite or virus in culture; type: cell-based, Acinetobacter baumannii; settings: Acinetobacter baumannii, 1258916, read-out: MIC, A. baumannii 1258916
A. baumannii PBP2 = A. baumannii PBP2 (Acinetobacter baumannii, UniProt D0C8Z9); assay: Bocillin-FL competition binding via gel filtration, A. baumannii PBP2
Chain of A. baumannii PBP2 (D0C8Z9 whole entry): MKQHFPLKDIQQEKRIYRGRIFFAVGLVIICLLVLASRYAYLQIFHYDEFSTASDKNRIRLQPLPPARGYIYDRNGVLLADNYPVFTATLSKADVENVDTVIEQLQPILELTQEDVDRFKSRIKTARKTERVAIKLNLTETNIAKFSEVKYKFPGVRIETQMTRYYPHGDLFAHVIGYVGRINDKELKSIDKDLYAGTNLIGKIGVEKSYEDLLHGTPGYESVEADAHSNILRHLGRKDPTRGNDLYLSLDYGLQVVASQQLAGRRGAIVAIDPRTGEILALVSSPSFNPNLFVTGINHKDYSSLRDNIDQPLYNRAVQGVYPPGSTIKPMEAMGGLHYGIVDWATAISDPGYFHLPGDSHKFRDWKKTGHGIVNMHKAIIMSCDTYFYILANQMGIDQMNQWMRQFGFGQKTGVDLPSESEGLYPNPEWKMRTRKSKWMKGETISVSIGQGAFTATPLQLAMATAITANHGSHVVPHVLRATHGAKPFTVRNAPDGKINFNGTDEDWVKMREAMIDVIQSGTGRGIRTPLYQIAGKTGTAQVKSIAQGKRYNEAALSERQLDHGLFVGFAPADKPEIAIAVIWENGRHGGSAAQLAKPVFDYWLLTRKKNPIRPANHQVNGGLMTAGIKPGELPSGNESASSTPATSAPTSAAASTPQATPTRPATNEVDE
How it was run: (§1)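 Enzyme was pre-incubated with rising inhibitor concentrations, then Bocillin-FL was added and incubated 15 minutes more. Bound probe was separated by gel filtration and fluorescence read. EC50 came from fitting fraction of PBP labelled versus inhibitor concentration to a Hill equation with ymin, ymax and n.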

A. baumannii CDC-0045 = assay: microbe, parasite or virus in culture; type: cell-based; settings: Acinetobacter baumannii, CDC0045, read-out: MIC, A. baumannii CDC-0045
P. aeruginosa ATCC 27853 = assay: microbe, parasite or virus in culture; type: cell-based; settings: Pseudomonas aeruginosa, ATCC27853, read-out: Minimum inhibitory concentration, P. aeruginosa ATCC 27853
[1] = test system: B. humptydooensis ATCC BAA-2767; assay: microbe, parasite or virus in culture; type: cell-based; settings: Burkholderia humptydooensis, ATCCBAA2767, read-out: Minimum inhibitory concentration (MIC), B. humptydooensis ATCC BAA-2767
P. aeruginosa CDC-0090 = assay: microbe, parasite or virus in culture; type: cell-based; settings: Pseudomonas aeruginosa, CDC0090, read-out: Minimum inhibitory concentration, P. aeruginosa CDC-0090
P. aeruginosa CDC-0054 = assay: microbe, parasite or virus in culture; type: cell-based; settings: Pseudomonas aeruginosa, CDC0054, read-out: Minimum inhibitory concentration, P. aeruginosa CDC-0054
A. baumannii PBP1a = target: T1, A. baumannii PBP1a (Acinetobacter baumannii, UniProt A0ABX6CK30); assay: Bocillin-FL competition binding via gel filtration, A. baumannii PBP1a; settings: competition binding assay using Bocillin-FL via gel filtration; read-out: A. baumannii PBP1a Potency
T1 sequence (A0ABX6CK30 1-851): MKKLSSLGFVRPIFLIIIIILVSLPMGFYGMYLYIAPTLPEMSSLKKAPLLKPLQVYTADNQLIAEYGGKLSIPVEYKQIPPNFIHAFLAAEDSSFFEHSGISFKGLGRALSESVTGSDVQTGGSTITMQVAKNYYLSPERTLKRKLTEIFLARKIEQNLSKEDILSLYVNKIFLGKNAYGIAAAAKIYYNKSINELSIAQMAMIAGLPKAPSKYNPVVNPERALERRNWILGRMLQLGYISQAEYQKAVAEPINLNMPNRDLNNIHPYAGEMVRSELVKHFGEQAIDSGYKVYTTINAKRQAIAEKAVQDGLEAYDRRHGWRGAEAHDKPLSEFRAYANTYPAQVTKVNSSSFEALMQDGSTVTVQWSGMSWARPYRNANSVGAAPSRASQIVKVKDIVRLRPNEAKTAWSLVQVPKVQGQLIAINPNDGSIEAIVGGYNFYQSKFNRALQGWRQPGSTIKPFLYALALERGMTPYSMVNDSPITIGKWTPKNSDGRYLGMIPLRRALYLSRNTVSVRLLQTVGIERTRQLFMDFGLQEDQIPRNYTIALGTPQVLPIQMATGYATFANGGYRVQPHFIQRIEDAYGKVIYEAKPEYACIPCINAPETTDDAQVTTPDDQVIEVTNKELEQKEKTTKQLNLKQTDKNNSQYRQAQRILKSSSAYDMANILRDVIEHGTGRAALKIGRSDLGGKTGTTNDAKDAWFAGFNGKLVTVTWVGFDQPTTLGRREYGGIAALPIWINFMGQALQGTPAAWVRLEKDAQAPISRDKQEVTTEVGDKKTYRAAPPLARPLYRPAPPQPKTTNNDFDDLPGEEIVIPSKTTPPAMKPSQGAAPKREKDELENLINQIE
How it was run: as §1

[2] = test system: P. aeruginosa (ΔmexAB-oprM); assay: Broth microdilution MIC in iron-depleted CAMHB (IDM); type: cell-based; settings: Pseudomonas aeruginosa; iron-depleted CAMHB (IDM); […]; read-out: Minimum inhibitory concentration, P. aeruginosa ΔmexAB-oprM

SMILES	MIC (A. baumannii 1258916) [µg/mL]	EC50 (A. baumannii PBP2) [µM]	MIC (A. baumannii CDC-0045) [µg/mL]	MIC (P. aeruginosa ATCC 27853) [µg/mL]	MIC [1] [µg/mL]	MIC (P. aeruginosa CDC-0090) [µg/mL]	MIC (P. aeruginosa CDC-0054) [µg/mL]	EC50 (A. baumannii PBP1a) [µM]	MIC [2] [µg/mL]
O=C(O)c1c(F)ccc2c1OB(O)[C@@H](NC(=O)[C@H](NC(=O)N1CCN(C3CCN(C(=O)Nc4cc(O)cc(F)c4)CC3)C1=O)c1cc(F)c(O)c(O)c1Cl)C2 (single isomer, unassigned) [Example 450]	< 1	< 10	< 1	< 1	8 to 16 (≈ 10.1 to 20.2 µM)	< 1	< 1	< 10	< 1
O=C(O)c1c(F)ccc2c1OB(O)[C@@H](NC(=O)[C@H](NC(=O)N1CCN(C3CCN(C(=O)Nc4cc(O)ccc4Cl)CC3)C1=O)c1cc(F)c(O)c(O)c1Cl)C2 (single isomer, unassigned) [Example 448]	< 1	< 10	< 1	< 1	< 1	< 1	< 1	< 10	< 1
O=C(O)c1c(F)ccc2c1OB(O)[C@@H](NC(=O)[C@H](NC(=O)N1CCN(Cc3ccc(O)c(O)c3Cl)C(=O)C1=O)c1ccc(P(=O)(O)O)c(F)c1F)C2 [Example 166, (R)-3-((R)-2-(4-(2-chloro-3,4-dihydroxybenzyl)-2,3-dioxopiperazine-1-carboxamido)-2-(2,3-difluoro-4-phosphonophenyl)acetamido)-7-fluoro-2-hydroxy-3,4-dihydro-2H-benzo[e][1,2]oxaborinine-8-carboxylic acid]	< 1	10 to 50	< 1	< 1	< 1	2 to 4 (≈ 2.59 to 5.19 µM)	< 1	10 to 50	< 1
O=C(O)c1c(F)ccc2c1OB(O)[C@@H](NC(=O)[C@H](NC(=O)N1CCN(C3CCN(C(=O)Nc4cccc(O)c4)CC3)C1=O)c1cc(F)c(O)c(O)c1Cl)C2 [Example 445, (R)-3-((R)-2-(2-chloro-5-fluoro-3,4-dihydroxyphenyl)-2-(3-(1-((3-hydroxyphenyl)carbamoyl)piperidin-4-yl)-2-oxoimidazolidine-1-carboxamido)acetamido)-7-fluoro-2-hydroxy-3,4-dihydro-2H-benzo[e][1,2]oxaborinine-8-carboxylic acid]	< 1	< 10	< 1	< 1	< 1	< 1	< 1	< 10	< 1
